Legend:
[1] = target: T1, protein kinases (panel of Table 4) (Homo sapiens, UniProt Q16539); assay: Kinase selectivity profile, kinase inhibition IC50 (Table 4), ATP 100 μM; format: biochemical; settings: kinase SAPK2a
T1 construct: other: kinase SAPK2a; ATP 100 μM

[2] = target: protein kinases (panel of Table 4) (Homo sapiens, UniProt P12931); assay: as above; format: biochemical; settings: kinase Src
PDK1 = PDK1 (Homo sapiens, UniProt O15530); assay: Kinase selectivity profile, PDK1; format: biochemical; settings: 5 μM test compound, compared to control; ATP 20 μM
PDK1, sequence (O15530 whole entry): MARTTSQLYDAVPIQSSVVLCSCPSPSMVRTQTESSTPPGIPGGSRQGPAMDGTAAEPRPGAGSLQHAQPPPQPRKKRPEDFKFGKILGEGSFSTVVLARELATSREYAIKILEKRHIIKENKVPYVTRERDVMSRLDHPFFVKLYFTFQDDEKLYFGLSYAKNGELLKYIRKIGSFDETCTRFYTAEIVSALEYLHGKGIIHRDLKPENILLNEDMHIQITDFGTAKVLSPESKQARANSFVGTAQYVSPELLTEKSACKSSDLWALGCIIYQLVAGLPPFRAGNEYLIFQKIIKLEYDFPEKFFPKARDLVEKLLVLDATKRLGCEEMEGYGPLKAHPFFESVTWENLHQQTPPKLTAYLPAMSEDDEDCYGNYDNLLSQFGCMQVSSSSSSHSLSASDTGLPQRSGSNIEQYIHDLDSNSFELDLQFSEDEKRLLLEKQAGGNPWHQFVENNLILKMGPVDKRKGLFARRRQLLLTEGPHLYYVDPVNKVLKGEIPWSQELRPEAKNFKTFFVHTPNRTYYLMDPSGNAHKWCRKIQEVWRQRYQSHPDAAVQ
Method: (§1) The kinase selectivity profiles of selected example compounds were determined, essentially as described (Bain, J.; McLauchlan, H.; Elliott, M.; Cohen, P. Biochemical Journal, 2003, 371, 199.); the results are shown in Tables 3 & 4. For the assays shown in Table 3, the kinases were assayed at the following ATP concentrations: SAPK4, PKBΔph, GSK3b, SAPK3, CK2, MKK1, PIM2, IKKB, ERK8, and PRK2 at 5 μM; JNK, PRAK, ROCK-II, SAPK2b, CDK2, CHK1, MSK1, CSK, P70S6K, PKA, CK1, MAPKAP-K2, SGK, PKCa, PDK1, NEK 7, and MAPKAP-K3 at 20 μM; SAPK2a, LCK, AMPK, MAPK2, DYRK1a, MAPKAP-K1a, NEK-6, NEK2a, PBK, CAMK-1, SRPK-1, JNK3, MNK2, RSK2, MNK1, PKBB, and SmMLCK at 50 μM. For the assays in Table 4 the ATP concentration was 100 μM throughout.

CK2 = assay: Kinase selectivity profile, CK2; format: biochemical; settings: 5 μM test compound, compared to control; ATP 5 μM
Method: as §1

CAMK-1 = CAMK-1 (Homo sapiens, UniProt Q14012); assay: Kinase selectivity profile, CAMK-1; format: biochemical; settings: 5 μM test compound, compared to control; ATP 50 μM
CAMK-1, sequence (Q14012 whole entry, species assumed): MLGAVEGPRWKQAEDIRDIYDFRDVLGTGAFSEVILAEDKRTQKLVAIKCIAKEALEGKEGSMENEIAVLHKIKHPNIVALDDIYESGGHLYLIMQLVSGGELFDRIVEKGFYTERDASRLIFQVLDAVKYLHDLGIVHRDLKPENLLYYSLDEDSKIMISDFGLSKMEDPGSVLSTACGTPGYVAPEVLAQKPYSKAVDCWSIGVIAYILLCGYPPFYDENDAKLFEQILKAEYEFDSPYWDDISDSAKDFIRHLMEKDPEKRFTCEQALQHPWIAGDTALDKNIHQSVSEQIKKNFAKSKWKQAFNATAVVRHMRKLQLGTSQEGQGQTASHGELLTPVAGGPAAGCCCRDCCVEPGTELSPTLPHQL
Method: as §1

ROCK-II = ROCK-II (Homo sapiens, UniProt O75116); assay: Kinase selectivity profile, ROCK-II; format: biochemical; settings: 5 μM test compound, compared to control; ATP 20 μM
ROCK-II, sequence (O75116 whole entry, species assumed): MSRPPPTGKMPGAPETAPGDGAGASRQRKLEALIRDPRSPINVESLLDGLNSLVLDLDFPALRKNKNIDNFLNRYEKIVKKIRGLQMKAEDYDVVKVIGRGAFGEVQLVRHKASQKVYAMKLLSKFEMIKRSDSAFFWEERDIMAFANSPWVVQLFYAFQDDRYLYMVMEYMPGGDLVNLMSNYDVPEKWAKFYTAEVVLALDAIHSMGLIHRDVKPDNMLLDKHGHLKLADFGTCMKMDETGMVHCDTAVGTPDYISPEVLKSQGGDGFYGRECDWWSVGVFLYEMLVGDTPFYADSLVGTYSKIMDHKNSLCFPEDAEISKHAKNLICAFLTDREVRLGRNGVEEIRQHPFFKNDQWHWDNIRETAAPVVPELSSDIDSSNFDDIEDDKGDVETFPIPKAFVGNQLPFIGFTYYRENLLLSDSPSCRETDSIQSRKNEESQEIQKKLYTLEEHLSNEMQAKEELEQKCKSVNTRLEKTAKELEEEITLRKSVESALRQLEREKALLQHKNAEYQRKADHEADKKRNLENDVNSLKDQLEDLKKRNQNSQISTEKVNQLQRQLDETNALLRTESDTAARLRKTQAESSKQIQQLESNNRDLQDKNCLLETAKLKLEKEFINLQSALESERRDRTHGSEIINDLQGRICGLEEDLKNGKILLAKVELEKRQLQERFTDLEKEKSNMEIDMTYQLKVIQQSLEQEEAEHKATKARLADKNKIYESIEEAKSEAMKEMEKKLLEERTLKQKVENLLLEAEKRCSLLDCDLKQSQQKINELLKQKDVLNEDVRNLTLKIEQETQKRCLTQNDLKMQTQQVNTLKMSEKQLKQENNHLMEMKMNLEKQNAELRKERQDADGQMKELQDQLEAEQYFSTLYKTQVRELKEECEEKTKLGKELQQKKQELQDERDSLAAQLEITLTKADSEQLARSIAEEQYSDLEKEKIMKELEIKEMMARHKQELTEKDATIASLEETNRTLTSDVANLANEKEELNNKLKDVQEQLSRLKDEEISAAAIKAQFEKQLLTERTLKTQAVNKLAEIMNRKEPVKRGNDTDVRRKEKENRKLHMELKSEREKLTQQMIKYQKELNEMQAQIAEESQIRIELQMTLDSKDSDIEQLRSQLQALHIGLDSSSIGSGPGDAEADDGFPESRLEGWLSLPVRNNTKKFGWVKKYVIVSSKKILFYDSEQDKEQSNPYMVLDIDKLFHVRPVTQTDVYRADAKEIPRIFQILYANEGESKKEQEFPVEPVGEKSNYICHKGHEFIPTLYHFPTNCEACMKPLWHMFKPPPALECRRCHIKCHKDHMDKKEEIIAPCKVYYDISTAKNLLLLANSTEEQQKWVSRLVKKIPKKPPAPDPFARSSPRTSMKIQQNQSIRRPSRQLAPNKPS
Method: as §1

MKK1 = MKK1 (Homo sapiens, UniProt Q02750); assay: Kinase selectivity profile, MKK1; format: biochemical; settings: 5 μM test compound, compared to control; ATP 5 μM
MKK1, sequence (Q02750 whole entry, species assumed): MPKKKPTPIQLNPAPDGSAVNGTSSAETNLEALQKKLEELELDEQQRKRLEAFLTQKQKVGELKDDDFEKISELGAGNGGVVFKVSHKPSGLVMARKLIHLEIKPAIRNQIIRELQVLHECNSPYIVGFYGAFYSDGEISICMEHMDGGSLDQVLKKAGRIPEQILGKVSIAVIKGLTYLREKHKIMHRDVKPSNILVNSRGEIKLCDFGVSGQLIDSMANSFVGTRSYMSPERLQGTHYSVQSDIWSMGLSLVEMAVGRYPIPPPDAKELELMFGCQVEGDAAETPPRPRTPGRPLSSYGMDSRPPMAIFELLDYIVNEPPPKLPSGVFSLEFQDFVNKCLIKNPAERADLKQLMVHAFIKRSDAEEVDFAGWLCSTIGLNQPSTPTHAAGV
Method: as §1

SRPK1 = SRPK1 (Homo sapiens, UniProt Q96SB4); assay: Kinase selectivity profile, SRPK1; format: biochemical; settings: 5 μM test compound, compared to control; ATP 50 μM
Method: as §1

MAPKAP-K3 = MAPKAP-K3 (Homo sapiens, UniProt Q16644); assay: Kinase selectivity profile, MAPKAP-K3; format: biochemical; settings: 5 μM test compound, compared to control; ATP 20 μM
Method: as §1

PHK = assay: Kinase selectivity profile, PHK; format: biochemical; settings: 5 μM test compound, compared to control
Method: as §1

SAPK2a/p38 = SAPK2a/p38 (Homo sapiens, UniProt Q16539); assay: Kinase selectivity profile, SAPK2a/p38; format: biochemical; settings: 5 μM test compound, compared to control; ATP 50 μM
Method: as §1

SAPK2b/p38β2 = SAPK2b/p38β2 (Homo sapiens, UniProt Q15759); assay: Kinase selectivity profile, SAPK2b/p38β2; format: biochemical; settings: 5 μM test compound, compared to control; ATP 20 μM
SAPK2b/p38β2, sequence (Q15759 whole entry): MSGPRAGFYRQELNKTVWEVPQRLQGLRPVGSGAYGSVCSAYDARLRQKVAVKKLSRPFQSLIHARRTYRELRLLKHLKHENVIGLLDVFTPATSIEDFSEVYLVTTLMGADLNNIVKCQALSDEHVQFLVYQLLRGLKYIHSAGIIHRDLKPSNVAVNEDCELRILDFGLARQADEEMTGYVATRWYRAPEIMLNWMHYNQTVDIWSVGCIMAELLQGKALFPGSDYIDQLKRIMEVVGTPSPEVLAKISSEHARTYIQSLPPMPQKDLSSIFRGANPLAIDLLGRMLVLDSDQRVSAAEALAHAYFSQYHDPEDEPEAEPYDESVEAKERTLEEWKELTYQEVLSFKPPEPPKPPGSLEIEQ
Method: as §1

DYRK1a = DYRK1a (Homo sapiens, UniProt Q13627); assay: Kinase selectivity profile, DYRK1a; format: biochemical; settings: 5 μM test compound, compared to control; ATP 50 μM
Method: as §1

PKCa = PKCa (Homo sapiens, UniProt P17252); assay: Kinase selectivity profile, PKCa; format: biochemical; settings: 5 μM test compound, compared to control; ATP 20 μM
Method: as §1

ERK8 = ERK8 (Homo sapiens, UniProt Q8TD08); assay: Kinase selectivity profile, ERK8; format: biochemical; settings: 5 μM test compound, compared to control; ATP 5 μM
ERK8, sequence (Q8TD08 whole entry, species assumed): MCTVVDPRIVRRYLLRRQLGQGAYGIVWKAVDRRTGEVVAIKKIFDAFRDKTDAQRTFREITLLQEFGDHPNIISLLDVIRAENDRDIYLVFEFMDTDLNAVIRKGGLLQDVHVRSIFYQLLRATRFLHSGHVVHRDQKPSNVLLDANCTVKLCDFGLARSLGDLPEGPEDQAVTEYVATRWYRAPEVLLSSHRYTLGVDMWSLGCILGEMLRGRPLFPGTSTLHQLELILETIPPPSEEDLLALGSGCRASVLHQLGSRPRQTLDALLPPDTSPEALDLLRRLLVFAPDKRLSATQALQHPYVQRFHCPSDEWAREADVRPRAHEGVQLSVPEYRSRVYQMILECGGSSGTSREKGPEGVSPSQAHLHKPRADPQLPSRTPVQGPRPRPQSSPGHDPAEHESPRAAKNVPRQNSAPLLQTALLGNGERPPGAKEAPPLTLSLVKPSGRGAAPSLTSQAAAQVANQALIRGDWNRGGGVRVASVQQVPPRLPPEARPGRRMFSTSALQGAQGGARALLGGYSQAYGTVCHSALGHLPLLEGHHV
Method: as §1

IKKb = IKKb (Homo sapiens, UniProt O14920); assay: Kinase selectivity profile, IKKb; format: biochemical; settings: 5 μM test compound, compared to control; ATP 5 μM
Method: as §1

AMPK = assay: Kinase selectivity profile, AMPK; format: biochemical; settings: 5 μM test compound, compared to control; ATP 50 μM
Method: as §1

SAPK3/p38g = SAPK3/p38g (Homo sapiens, UniProt P53778); assay: Kinase selectivity profile, SAPK3/p38g; format: biochemical; settings: 5 μM test compound, compared to control; ATP 5 μM
Method: as §1

SAPK4/p38d = SAPK4/p38d (Homo sapiens, UniProt O15264); assay: Kinase selectivity profile, SAPK4/p38d; format: biochemical; settings: 5 μM test compound, compared to control; ATP 5 μM
Method: as §1

MAPKAP-K1a = MAPKAP-K1a (Homo sapiens, UniProt Q15418); assay: Kinase selectivity profile, MAPKAP-K1a; format: biochemical; settings: 5 μM test compound, compared to control; ATP 50 μM
Method: as §1

MNK1 = MNK1 (Homo sapiens, UniProt Q9BUB5); assay: Kinase selectivity profile, MNK1; format: biochemical; settings: 5 μM test compound, compared to control; ATP 50 μM
MNK1, sequence (Q9BUB5 whole entry, species assumed): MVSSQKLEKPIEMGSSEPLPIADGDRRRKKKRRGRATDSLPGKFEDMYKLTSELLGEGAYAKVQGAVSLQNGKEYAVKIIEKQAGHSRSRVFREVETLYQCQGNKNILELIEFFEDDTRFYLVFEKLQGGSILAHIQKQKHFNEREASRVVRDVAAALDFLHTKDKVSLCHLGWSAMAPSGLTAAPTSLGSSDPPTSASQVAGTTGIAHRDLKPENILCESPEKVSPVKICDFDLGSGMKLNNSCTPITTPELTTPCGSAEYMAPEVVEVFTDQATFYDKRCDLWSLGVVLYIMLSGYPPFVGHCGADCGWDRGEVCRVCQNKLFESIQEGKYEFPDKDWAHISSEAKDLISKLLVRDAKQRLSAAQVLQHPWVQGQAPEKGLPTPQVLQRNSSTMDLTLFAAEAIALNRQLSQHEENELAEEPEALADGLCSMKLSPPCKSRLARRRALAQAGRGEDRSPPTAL
Method: as §1

Compound	IC50 [1]	remaining activity at 5 µM (PDK1)	Remaining activity (%) CK2 (CK2)	remaining activity at 5 µM (CAMK-1)	remaining activity at 5 µM (ROCK-II)	remaining activity at 5 µM (MKK1)	remaining activity at 5 µM (SRPK1)	remaining activity at 5 µM (MAPKAP-K3)	Remaining activity (%) PHK (PHK)	remaining activity at 5 µM (SAPK2a/p38)	remaining activity at 5 µM (SAPK2b/p38β2)	remaining activity at 5 µM (DYRK1a)	remaining activity at 5 µM (PKCa)	remaining activity at 5 µM (ERK8)	remaining activity at 5 µM (IKKb)	Remaining activity (%) AMPK (AMPK)	remaining activity at 5 µM (SAPK3/p38g)	remaining activity at 5 µM (SAPK4/p38d)	remaining activity at 5 µM (MAPKAP-K1a)	remaining activity at 5 µM (MNK1)	other results
CNc1nc(C)c(-c2ccnc(Nc3cccc(S(N)(=O)=O)c3)n2)s1 [Compound 19, 3-[4-(4-Methyl-2-methylamino-thiazol-5-yl)-pyrimidin-2-ylamino]-benzenesulfonamide]	580 nM																				IC50 [2]: 1200 nM
COCCNS(=O)(=O)c1cccc(Nc2nccc(-c3sc(N)nc3C)n2)c1 [Compound 55, 3-[4-(2-Amino-4-methyl-thiazol-5-yl)-pyrimidin-2-ylamino]-N-(2-methoxy-ethyl)-benzenesulfonamide]																					melting point: 179 to 180 °C
CCNc1nc(C)c(-c2ccnc(Nc3ccc(N4CCNCC4)cc3)n2)s1 [Compound 59, [4-(2-Ethylamino-4-methyl-thiazol-5-yl)-pyrimidin-2-yl]-(4-piperazin-1-yl-phenyl)-amine]	3300 nM	20%	2%	30%	5%	25%	88%	87%	3%	39%	36%	4%	33%	4%	7%	2%	69%	66%	14%	3%	
Cc1nc(CS(=O)(=O)c2cccs2)sc1-c1ccnc(Nc2ccc(N3CCOCC3)cc2)n1 [Compound 138, {4-[4-Methyl-2-(thiophene-2-sulfonylmethyl)-thiazol-5-yl]-pyrimidin-2-yl}-(4-morpholin-4-yl-phenyl)-amine]		55%	5%	91%	14%	21%	110%	104%	15%	33%	42%	27%	41%	11%	34%	28%	74%	85%	34%	18%	

Reference: patent publication US20090137572A1, “2-substituted-4-heteroaryl-pyrimidines useful for the treatment of proliferative disorders” (priority 2004, published 2009)
